Measured values from patent publication US10183944B2 (Asana Biosciences, LLC, priority 2011, dated 2019).
pEC50, pIC50: −log10 of the molar value. Where a name gives a salt, the structure may show the parent alone.

Legend:
RBL2H3 cells = assay: Degranulation assay: β-hexosaminidase release during immune complex mediated degranulation; assay type: cell-based, rat; conditions: Rattus norvegicus, RBL-2H3, Assay Protocol B (96 well format); for inhibition at 1 µM: read-out: Degranulation % inhibition at 1 μM; for pEC50: read-out: Degranulation EC50
Method in brief: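 RBL2H3 cells sensitized overnight (or 24 h) with anti-DNP rat IgE, pretreated 15 min with compounds in 0.5% DMSO, then challenged with DNP-BSA for 45–60 min. β-Hexosaminidase in supernatant read fluorometrically (Ex 355/Em 460 nm) with β-NAG substrate, 30 min RT; % release/inhibition calculated.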

JAK2 = JAK2 (Homo sapiens (Human), UniProt O60674); assay: Inhibition of enzymatic JAK2 kinase activity (TR-FRET); assay type: biochemical; conditions: read-out: IC50 JAK
JAK2, sequence (O60674 808-1132): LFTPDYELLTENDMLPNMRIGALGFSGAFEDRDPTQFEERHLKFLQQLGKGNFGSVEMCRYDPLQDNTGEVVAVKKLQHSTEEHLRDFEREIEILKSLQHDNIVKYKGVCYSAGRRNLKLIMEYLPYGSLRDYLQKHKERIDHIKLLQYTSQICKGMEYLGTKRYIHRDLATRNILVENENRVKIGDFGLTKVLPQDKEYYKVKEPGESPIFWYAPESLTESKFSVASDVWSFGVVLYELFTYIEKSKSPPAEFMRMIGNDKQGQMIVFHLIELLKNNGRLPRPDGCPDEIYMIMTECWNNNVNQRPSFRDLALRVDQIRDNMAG
Method in brief: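 Enzyme preincubated with compound 30 min at RT, then Ulight-poly-GT substrate and ATP added for 60 min at RT. EDTA stop, Eu-antiphosphotyrosine antibody; TR-FRET ratio 665/615 nm (ex 340 nm), blank-corrected; % inhibition versus positive control.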

[1] = target: Syk (356-635 amino acids) catalytic domain (Homo sapiens (Human), UniProt P43405); assay: Inhibition of enzymatic Syk kinase activity (radiometric); assay type: biochemical; conditions: read-out: IC50 Syk
Method in brief: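 Human Syk (356-635) kinase domain (0.035–7.5 ng/reaction) preincubated with compound 30 minutes at room temperature, then reacted with pG4T substrate, 100 μM ATP (stock) and γ-32P-ATP for 10 minutes at 30° C. Reaction stopped with HCl/ATP, spotted on P81 paper, washed and counted by scintillation. Percent inhibition versus no-compound counts.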

Row | pEC50 (RBL2H3 cells) | pIC50 (JAK2) | pIC50 [1] | Compound | inhibition at 1 µM (RBL2H3 cells)
1 | 7.08 | > 8.00 | > 8.00 | O=c1[nH]ncc2nc(N3CCCCCC3)nc(Nc3ccc(OC4CCNCC4)cc3)c12 [Example 292, 2-(azepan-1-yl)-4-((4-(piperidin-4-yloxy)phenyl)amino)pyrimido[4,5-d]pyridazin-5(6H)-one hydrochloride] | 65%
2 | 7.74 | > 7.30 | > 8.00 | CC(C)(CO)N1CCCN(c2ccc(Nc3nc(N4CCC(CC#N)CC4)nc4cn[nH]c(=O)c34)cc2)CC1 [Example 297, 2-(1-(4-((4-(4-(1-hydroxy-2-methylpropan-2-yl)-1,4-diazepan-1-yl)phenyl)amino)-5-oxo-5,6-dihydropyrimido[4,5-d]pyridazin-2-yl)piperidin-4-yl)acetonitrile] | 99%
3 | 7.26 | > 8.00 | > 8.00 | O=C(O)CCc1ccc(Nc2nc(N3CCCCCC3)nc3cn[nH]c(=O)c23)cc1 [Example 304, 3-(4-((2-(azepan-1-yl)-5-oxo-5,6-dihydropyrimido[4,5-d]pyridazin-4-yl)amino)phenyl)propanoic acid] | 70%
4 | 6.08 | > 7.30 | > 8.00 | N#CCC1CCN(c2nc(Nc3ccc(CCC(=O)O)cc3)c3c(=O)[nH]ncc3n2)CC1 [Example 305, 3-(4-((2-(4-(cyanomethyl)piperidin-1-yl)-5-oxo-5,6-dihydropyrimido[4,5-d]pyridazin-4-yl)amino)phenyl)propanoic acid] | 17%
5 | 7.82 | > 8.00 | > 8.00 | O=c1[nH]ncc2nc(N3CCCCCC3)nc(Nc3ccc(N(CCO)CCO)cc3)c12 [Example 306, 2-(azepan-1-yl)-4-((4-(bis(2-hydroxyethyl)amino)phenyl)amino) pyrimido[4,5-d]pyridazin-5(6H)-one] | 100%
6 | 6.51 | > 8.00 | > 8.00 | N#CCC1CCN(c2nc(Nc3ccc(N(CCO)CCO)cc3)c3c(=O)[nH]ncc3n2)CC1 [Example 307, 2-(1-(4-((4-(bis(2-hydroxyethyl)amino)phenyl)amino)-5-oxo-5,6-dihydropyrimido[4,5-d]pyridazin-2-yl)piperidin-4-yl)acetonitrile] | 14%
7 | 7.21 | > 8.00 | > 8.00 | O=c1[nH]ncc2nc(N3CCCCCC3)nc(Nc3ccc(OC4CCN(CCO)CC4)cc3)c12 [Example 329, 2-(azepan-1-yl)-4-((4-((1-(2-hydroxyethyl)piperidin-4-yl)oxy)phenyl)amino) pyrimido[4,5-d]pyridazin-5(6H)-one] | 69%
8 | 7.51 | > 7.30 | > 8.00 | O=c1[nH]ncc2nc(N3CCCCCC3)nc(Nc3ccc4[nH]nnc4c3)c12 [Example 339, 4-((1H-benzo[d][1,2,3]triazol-5-yl)amino)-2-(azepan-1-yl)pyrimido[4,5-d]pyridazin-5(6H)-one] | 83%

Second part, the molecule before the results:

Row | Compound | pEC50 (RBL2H3 cells) | pIC50 (JAK2) | pIC50 [1] | inhibition at 1 µM (RBL2H3 cells)
9 | N#CCC1CCN(c2nc(Nc3ccc(N4CCN(CCCO)CC4)cc3)c3c(=O)[nH]ncc3n2)CC1 [Example 261, 2-(1-(4-((4-(4-(3-hydroxypropyl)piperazin-1-yl)phenyl)amino)-5-oxo-5,6-dihydropyrimido[4,5-d]pyridazin-2-yl)piperidin-4-yl)acetonitrile] | 7.41 | > 7.30 | > 8.00 | 87%
10 | N#CCC1CCN(c2nc(Nc3ccc(N4CCCN(CCO)CC4)cc3)c3c(=O)[nH]ncc3n2)CC1 [Example 264, 2-(1-(4-((4-(4-(2-hydroxyethyl)-1,4-diazepan-1-yl)phenyl)amino)-5-oxo-5,6-dihydropyrimido[4,5-d]pyridazin-2-yl)piperidin-4-yl)acetonitrile] | 7.27 | > 8.00 | > 8.00 | 75%
11 | CC(C)(CO)N1CCN(c2ccc(Nc3nc(N4CCCCCC4)nc4cn[nH]c(=O)c34)cc2)CC1 [Example 265, 2-(azepan-1-yl)-4-((4-(4-(1-hydroxy-2-methylpropan-2-yl)piperazin-1-yl)phenyl)amino)pyrimido[4,5-d]pyridazin-5(6H)-one] | 7.52 | > 8.00 | > 8.00 | 79%
12 | CC(C)(CO)N1CCN(c2ccc(Nc3nc(N4CCC(CC#N)CC4)nc4cn[nH]c(=O)c34)cc2)CC1 [Example 266, 2-(1-(4-((4-(4-(1-hydroxy-2-methylpropan-2-yl)piperazin-1-yl)phenyl)amino)-5-oxo-5,6-dihydropyrimido[4,5-d]pyridazin-2-yl)piperidin-4-yl) acetonitrile] | 8.00 | > 7.30 | > 8.00 | 99%
13 | CN(C)CCN1CCN(c2ccc(Nc3nc(N4CCCCCC4)nc4cn[nH]c(=O)c34)cc2)CC1 [Example 267, 2-(azepan-1-yl)-4-((4-(4-(2-(dimethylamino)ethyl)piperazin-1-yl)phenyl)amino)pyrimido[4,5-d]pyridazin-5(6H)-one] | 7.68 | > 8.00 | > 8.00 | 90%
14 | CN(C)CCN1CCN(c2ccc(Nc3nc(N4CCC(CC#N)CC4)nc4cn[nH]c(=O)c34)cc2)CC1 [Example 268, 2-(1-(4-((4-(4-(2-(dimethylamino)ethyl)piperazin-1-yl)phenyl)amino)-5-oxo-5,6-dihydropyrimido[4,5-d]pyridazin-2-yl)piperidin-4-yl)acetonitrile] | 7.70 | > 7.30 | > 8.00 | 93%
15 | O=c1[nH]ncc2nc(N3CCCCCC3)nc(Nc3ccc(N4CCN(CC(O)CO)CC4)cc3)c12 (stereo not shown) [Example 273, 2-(azepan-1-yl)-4-((4-(4-(2,3-dihydroxypropyl)piperazin-1-yl)phenyl)amino)pyrimido[4,5-d]pyridazin-5(6H)-one] | 7.68 | > 8.00 | > 8.00 | 91%
16 | N#CCC1CCN(c2nc(Nc3ccc(N4CCN(CC(O)CO)CC4)cc3)c3c(=O)[nH]ncc3n2)CC1 (stereo not shown) [Example 274, 2-(1-(4-((4-(4-(2,3-dihydroxypropyl)piperazin-1-yl)phenyl)amino)-5-oxo-5,6-dihydropyrimido[4,5-d]pyridazin-2-yl)piperidin-4-yl)acetonitrile] | 7.09 | > 8.00 | > 8.00 | 59%
17 | O=c1[nH]ncc2nc(N3CCCCCC3)nc(Nc3ccc(N4CCN(CCF)CC4)cc3)c12 [Example 275, 2-(azepan-1-yl)-4-((4-(4-(2-fluoroethyl)piperazin-1-yl)phenyl)amino) pyrimido[4,5-d]pyridazin-5(6H)-one] | 7.82 | > 8.00 | > 8.00 | 73%
18 | N#CCC1CCN(c2nc(Nc3ccc(N4CCN(CCF)CC4)cc3)c3c(=O)[nH]ncc3n2)CC1 [Example 276, 2-(1-(4-((4-(4-(2-fluoroethyl)piperazin-1-yl)phenyl)amino)-5-oxo-5,6-dihydropyrimido[4,5-d]pyridazin-2-yl)piperidin-4-yl)acetonitrile] | 7.62 | > 7.30 | > 8.00 | 91%
19 | O=c1[nH]ncc2nc(N3CCCCCC3)nc(Nc3ccc(N4CCCC(O)C4)nc3)c12 (stereo not shown) [Example 277, 2-(azepan-1-yl)-4-((6-(3-hydroxypiperidin-1-yl)pyridin-3-yl)amino)pyrimido[4,5-d]pyridazin-5(6H)-one] | 7.38 | > 7.30 | > 8.00 | 74%
20 | CN1CCN(C(=O)COc2ccc(Nc3nc(N4CCCCCC4)nc4cn[nH]c(=O)c34)cc2)CC1 [Example 283, 2-(azepan-1-yl)-4-((4-(2-(4-methylpiperazin-1-yl)-2-oxoethoxy)phenyl)amino)pyrimido[4,5-d]pyridazin-5(6H)-one] | 7.41 | > 8.00 | > 8.00 | 71%
21 | N#CCC1CCN(c2nc(Nc3ccc(N4CCCC(CO)C4)cc3)c3c(=O)[nH]ncc3n2)CC1 (stereo not shown) [Example 284, 2-(1-(4-((4-(3-(hydroxymethyl)piperidin-1-yl)phenyl)amino)-5-oxo-5,6-dihydropyrimido[4,5-d]pyridazin-2-yl)piperidin-4-yl)acetonitrile] | 7.68 | > 8.00 | > 8.00 | 92%
22 | COC1CCN(c2ccc(Nc3nc(N4CCC(CC#N)CC4)nc4cn[nH]c(=O)c34)cc2)CC1 [Example 287, 2-(1-(4-((4-(4-methoxypiperidin-1-yl)phenyl)amino)-5-oxo-5,6-dihydropyrimido[4,5-d]pyridazin-2-yl)piperidin-4-yl)acetonitrile] | 7.70 | > 7.30 | > 7.30 | 97%
